Measured values reported in patent US20080019949A1, “DIFFERENTIATION OF STEM CELLS FROM UMBILICAL CORD MATRIX INTO […] CELLS” (UNIVERSITY OF KANSAS, priority 2006, published 2008).

Legend:
[1] = system: differentiated and undifferentiated HUMCs; test: Cellular uptake of Indocyanine Green (ICG); assay type: cell-based, human; conditions: 1 mg/mL ICG concentration
Description: Cellular uptake of Indocyanine Green (ICG.): ICG was dissolved to an initial concentration of 5 mg/mL in solvent. The solution was then diluted to 1 mg/mL in maturation media and added to the culture dish and incubated at 37° C. in a humidified incubator at 5% CO2 for 10-15 minutes. The cells were washed thoroughly with sterile PBS and then visualized under a light microscope. After examination, the PBS was then removed and maturation media was added and the cells incubated at 37° C. in a humidified incubator at 5% CO2 for ˜4-6 hours to confirm elimination of ICG.

[2] = system: differentiated HUCM cells (hepatocyte-like cells)
Description: RNA isolation and Reverse Transcription Polymerase Chain Reaction (RT-PCR.): RNA was isolated from cells on RNeasy Quick spin columns (Qiagen, Valencia, Calif.) and converted to cDNA using random hexamers and SuperScript II reverse transcriptase (Invitrogen, Carlsbad, Calif.). PCR was performed using a BioRad I-Cycler. Products were resolved by 2% agarose gel electrophoresis and visualized by ethidium bromide staining. Expression of numerous hepatocyte-specific genes was analyzed, including CK18, cytokeratin 18; HNF3-β, hepatocyte nuclear factor 3β; CK19, cytokeratin 19; AFP, alpha fetoprotein; Alb, albumin; and CYP2B6, cytochrome P450 2 family.
Cytochromes were induced by treatment with; Rifamicin (RIF), 20 um; Penobarbital (PB), 2 mM; forskolin, 50 uM; 8-Bromo-cAMP, 1 mM (Tocris, Ellisville, Mo.); and vehicle controls for 24-hour period. mRNA was then harvested and then analyzed by RT-PCR.

Row | SMILES | adverse effects on cells [1] | expression of inducible markers (CAR, PXR, PGC-1, PEPCK, PPAR-γ, CYP3A4, HNF4α) [2] | CYP3A4 expression (RT-PCR) [2] | PXR expression (RT-PCR) [2]
1 | CC1(C)C(/C=C/C=C/C=C/C=C2\N(CCCCS(=O)(=O)O)c3ccc4ccccc4c3C2(C)C)=[N+](CCCCS(=O)(=O)[O-])c2ccc3ccccc3c21 [ICG, Indocyanine Green] | no adverse effects were observed |  |  | 
2 | C=C[C@@]1(C)CC(=O)[C@]2(O)[C@@]3(C)[C@@H](O)CCC(C)(C)[C@@H]3[C@H](O)[C@H](OC(C)=O)[C@@]2(C)O1 [forskolin] |  | showed a number of hepatocyte-inducible genes or an increase in expression levels |  | 
3 | CCC1(c2ccccc2)C(=O)NC(=O)NC1=O [PB, phenobarbital] |  | showed a number of hepatocyte-inducible genes or an increase in expression levels | induced | induced
